Reference: patent US11331326B2, “Composition for prevention or treatment of inflammatory skin diseases or severe pruritus comprising the aqueous solubilized ursodeoxycholic acid” (AMICOGEN PHARMA INC., priority 2016, dated 2022)
Converted amounts (≈) assume the structure as drawn.

Assays:
[1] = protonated form (pH 1 to 8); cited from earlier work
[2] = Solubility of ursodeoxycholic acid in water; format: physicochemical; conditions: pH 1 to 8
[3] = oral administration, crystalline form of UDCA; cited from earlier work
[4] = crystalline type of ursodeoxycholic acid; cited from earlier work

Compound	solubility [1]	solubility relative to the commercialized UDCA [2]	fraction absorbed at the ileum of the colon by the active transport mechanism [3]	acid dissociation constant, pKa [4]
C[C@H](CCC(=O)NCCS(=O)(=O)O)[C@H]1CC[C@H]2[C@@H]3[C@@H](O)C[C@@H]4C[C@H](O)CC[C@]4(C)[C@H]3CC[C@]12C [TUDCA, tauroursodeoxycholic acid]	450 µM (≈ 225 µg/mL)	about 10 times		
C[C@H](CCC(=O)O)[C@H]1CC[C@H]2[C@@H]3[C@@H](O)C[C@@H]4C[C@H](O)CC[C@]4(C)[C@H]3CC[C@]12C [UDCA, ursodeoxycholic acid]	about 0.05 mM		up to 20 % of intakes	about 5.0
